Experimental data published in publication PMC3355094 (PLoS Pathogens, 2012).

Tests used:
[1] = target: T1, N90A (Coprinopsis cinerea, UniProt B3GA02, N90A); experiment: biochemical; format: binding
T1 construct: gene ccl2

[2] = target: T2, Y92A (Coprinopsis cinerea, UniProt B3GA02, Y92A); experiment: biochemical; format: binding
T2 construct: gene ccl2

[3] = target: T3, K109A (Coprinopsis cinerea, UniProt B3GA02, K109A); experiment: biochemical; format: binding
T3 construct: gene ccl2

[4] = target: T4, V93A (Coprinopsis cinerea, UniProt B3GA02, V93A); experiment: biochemical; format: binding
T4 construct: gene ccl2
T4 sequence (B3GA02 2-142 V93A limits assumed): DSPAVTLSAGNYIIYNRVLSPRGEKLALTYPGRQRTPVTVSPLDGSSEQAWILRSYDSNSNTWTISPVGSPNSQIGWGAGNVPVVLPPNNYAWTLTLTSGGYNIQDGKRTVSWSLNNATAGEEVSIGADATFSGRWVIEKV

[5] = target: T5, L87A (Coprinopsis cinerea, UniProt B3GA02, L87A); experiment: biochemical; format: binding
T5 construct: gene ccl2
T5 sequence (B3GA02 2-142 L87A limits assumed): as the sequence (B3GA02 2-142 V93A limits assumed) above, with L86A, A92V counted along it

[6] = target: T6, Y57A (Coprinopsis cinerea, UniProt B3GA02, Y57A); experiment: biochemical; format: binding
T6 construct: gene ccl2
T6 sequence (B3GA02 2-142 Y57A limits assumed): as the sequence (B3GA02 2-142 V93A limits assumed) above, with Y56A, A92V counted along it

[7] = target: T7, W78A (Coprinopsis cinerea, UniProt B3GA02, W78A); experiment: biochemical; format: binding
T7 construct: gene ccl2
T7 sequence (B3GA02 2-142 W78A limits assumed): as the sequence (B3GA02 2-142 V93A limits assumed) above, with W77A, A92V counted along it

[8] = target: T8, W94A (Coprinopsis cinerea, UniProt B3GA02, W94A); experiment: biochemical; format: binding
T8 construct: gene ccl2
T8 sequence (B3GA02 2-142 W94A limits assumed): as the sequence (B3GA02 2-142 V93A limits assumed) above, with A92V, W93A counted along it

[9] = target: T9, N91A (Coprinopsis cinerea, UniProt B3GA02, N91A); experiment: biochemical; format: binding
T9 construct: gene ccl2
T9 sequence (B3GA02 2-142 N91A limits assumed): as the sequence (B3GA02 2-142 V93A limits assumed) above, with N90A, A92V counted along it

[10] = test system: C. elegans fut-1(ok892); experiment: C. elegans liquid toxicity assay, feeding on recombinant E. coli; format: in vivo, Caenorhabditis elegans; conditions: fut-1(ok892) mutant
[11] = test system: C. elegans fut-1(ok892); experiment: CCL2 nematotoxicity assay in solid media; format: in vivo, Caenorhabditis elegans
[12] = test system: D. melanogaster; experiment: Biotoxicity assay with purified protein added to the rearing medium; format: in vivo, Drosophila melanogaster
[13] = test system: C. elegans wildtype (N2); experiment: C. elegans liquid toxicity assay, feeding on recombinant E. coli; format: in vivo, Caenorhabditis elegans
[14] = test system: C. elegans fut-6(ok475)fut-1(ok892); experiment: as above; format: in vivo, Caenorhabditis elegans; conditions: fut-6(ok475)fut-1(ok892) double mutant, vs vector control
[15] = test system: C. elegans bre-1(ye4); experiment: as above; format: in vivo, Caenorhabditis elegans; conditions: bre-1(ye4) mutant, vs vector control
[16] = test system: A. aegypti larvae; experiment: Biotoxicity assay with recombinant E. coli; format: in vivo, Aedes aegypti; conditions: CCL2-expressing E. coli vs vector control
[17] = Isothermal titration calorimetry, CCL2 wild type and variants binding to fucosylated chitobiose
Protocol: ITC experiments were performed on a VP-ITC instrument (MicroCal). The calorimeter was calibrated according to the manufacturer's instructions. Protein and carbohydrate samples were dialyzed against NMR buffer at room temperature using a 3.5 kDa membrane (Spectra/Por) and Micro DispoDialyzer (100 Da cutoff; Harvard Apparatus), respectively. The disaccharide Fucα1,3GlcNAc-OMe was not dialyzed but dissolved in NMR buffer. The sample cell (1.4 mL) was loaded with 70 µM protein; carbohydrate concentration in the syringe was 2–4 mM. A titration experiment typically consisted of 30–50 injections, each of 3 µL volume and 6 s duration, with a 6.7 min interval between additions. Stirring rate was 307 rpm. Raw data were integrated, corrected for nonspecific heats, normalized for the molar concentration, and analyzed according to a 1∶1 binding model.

[18] = test system: A. castellanii; experiment: Biotoxicity assay with recombinant E. coli; format: in vivo, Acanthamoeba castellanii; conditions: CCL2-expressing E. coli vs vector control
[19] = purified CCL2, relative to the control (BSA)
[20] = ITC, 299K, protein binding to GlcNAcβ1,4[Fucα1,3]GlcNAcβ1-sp
[21] = ITC, 299K, protein binding to GlcNAcβ1,4[Fucα1,3]GlcNAcβ1-sp, listed as Wild type
[22] = Table S6, ligand GlcNAc1,4[Fuc1,3]GlcNAc-O-spacer, This study

T2 sequence (B3GA02 2-142 Y92A limits assumed): as the sequence (B3GA02 2-142 V93A limits assumed) above, with Y91A, A92V counted along it
T1 sequence (B3GA02 2-142 N90A limits assumed): as the sequence (B3GA02 2-142 V93A limits assumed) above, with N89A, A92V counted along it
T3 sequence (B3GA02 2-142 K109A limits assumed): as the sequence (B3GA02 2-142 V93A limits assumed) above, with A92V, K108A counted along it

Compound: CC(=O)N[C@H]1[C@H](O[C@H]2[C@H](O[C@@H]3O[C@@H](C)[C@@H](O)[C@@H](O)[C@@H]3O)[C@@H](NC(C)=O)[C@H](OCCCCCC(=O)O)O[C@@H]2CO)O[C@H](CO)[C@@H](O)[C@@H]1O [GlcNAcβ1,4[Fucα1,3]GlcNAcβ1-sp, fucosylated chitobiose, GlcNAcβ1,4[Fucα1,3]GlcNAcβ-O(CH2)5COOH]
- Kd [1]: 6.7 µM
- Kd [2]: > 500 µM
- Kd [3]: 1.5 µM
- Kd [4]: 27.2 µM
- Kd [5]: 26.3 µM
- Kd [6]: 10.9 µM
- Kd [7]: 62.9 µM
- Kd [8]: 310 µM
- Kd [9]: 0.18 µM

Compound: CCL2: novel fruiting body lectin from the ink cap mushroom Coprinopsis cinerea, recombinant, monomeric β-trefoil
- larvae reaching L4 stage ([10]; after 48 hours): half
- susceptibility to CCL2-mediated toxicity ([10]; vs vector control): partially resistant
- additional time required to reach L4 [11]: at least 24 h
- resistance to CCL2 [11]: partial resistance
- development of pupae and flies vs control ([12]; purified CCL2, BSA control): significantly different from the control
- delay in development of flies [12, 19]: 10 fold
- delay in development of pupae [12, 19]: 4 fold
- reduction of development of L1 larvae ([13]; 30% of CCL2-expressing E. coli among the fed bacteria): more than 95%
- toxicity: development of L1 larvae vs vector control ([13]; N2 fed E. coli expressing the lectin, L4 stage after 48 h): stopped the development of all wildtype (N2) L1 larvae
- susceptibility to CCL2-mediated toxicity [14]: not and completely resistant
- susceptibility to CCL2-mediated toxicity [15]: not and completely resistant
- toxicity [16]: No significant differences
- Kd [17, 20]: 1.4 µM
- ΔH [17, 20]: -12 kcal/mol
- −TΔS [17, 20]: 3.82 kcal/mol
- ΔH [17, 21]: -11.9 kcal/mol
- −TΔS [17, 21]: 3.9 kcal/mol
- –TΔS [17, 22]: 3.9 kcal/mol
- –ΔH [17, 22]: 11.9 kcal/mol
- toxicity [18]: No significant differences
